# Legend:
# [1] = test system: B16.BL6 melanoma cells; test: Cell concentration and viability after conjugation, trypan blue (Example 11); assay type: cell-based
# Protocol: Two flasks (300 cm^2) (TPP, Trasadingen Switzerland) of confluent B16.BL6 melanoma cells grown in DMEM containing 10% fetal calf serum (without P/S) at 37.5° C. in 5% CO2 were used for this experiment. Growth medium was removed from the cells and 25 mL of PBS (without Mg^2+ and Ca^2+) (Gibco Invitrogen, Taastrup, Denmark) was added to the cells and immediately removed again. Another 10 mL of PBS was added and removed, before cells were harvested with Cell Dissociation Solution C5914 (Sigma-aldrich, Saint Louis, Mo.) (3 mL per flask) and transferred to 10 mL tubes (TPP, Trasadingen Switzerland). The cells were centrifuged for 5 minutes at 300 G at 20° C. and the supernatant was discarded. Subsequently, cells were washed in PBS (without Mg^2+ and Ca^2+), centrifuged as above and resuspended in PBS (without Mg^2+ and Ca^2+). The concentration of the cell suspension was determined.
# Five hundred mg of alpha-Gal trisaccharide-carbamate (9) was dissolved in PBS (without Mg^2+ and Ca^2+) (Gibco Invitrogen, Taastrup, Denmark) and passed through a sterile filter (Sartorius Minisart®, 0.20 my) (Sartorius, Goettingen, Germany). Eight different concentrations of conjugate were prepared. Two mL of each conjugate dilution was added to a flask with 2 mL of PBS (without Mg^2+ and Ca^2+) and 600 μl of cell suspension containing 10^6 B16.BL6 cells. The final volume of the flasks was 4.6 mL. The flasks were numbered 1 to 10. Flasks 1 and 10 contained no conjugate and served as controls. The cells were incubated with the conjugate for 3 hours and 25 minutes at 37° C. and 5% CO2.
# After conjugation, cells from conjugation reaction 1 (non-conjugated cells), 2, 4, 6 and 8 were harvested with 10 mL of Cell Dissociation Solution C5914 (Sigma-Aldrich, Saint Louis, Mo.) and transferred to 10 mL tubes (TPP, Trasadingen Switzerland). Cells were centrifuged for 5 minutes at 300 G at 20° C. and resuspended in PBS (without Mg^2+ and Ca^2+). Finally, cells were centrifuged as before and resuspended in 100 μl TBS with 1% BSA. Cell concentration and viability was determined by microscopic evaluation of trypan blue stained cell samples. Cells from conjugation reaction 3, 5, 7, 9 and 10 (non-conjugated cells), were harvested the following day as described above. The cells were centrifuged once for 5 minutes at 300 G at 20° C. and resuspended in 100 μl TBS with 1% BSA. Cell concentration and viability was determined by microscopic evaluation of trypan blue stained cell samples.
# [2] = test system: B16.BL6 melanoma cells; test: Scintillation, epitopes per cell (Example 15); assay type: cell-based
# Protocol: Radioactive labelled and regular alpha-Gal trisaccharide-carbamate (9) probe (labeled on the cyclic carbamate carbon) was dissolved in HBSS containing D-glucose (without Mg^2+ and Ca^2+) (Gibco Invitrogen, Taastrup, Denmark) and passed through sterile filters (0.2 μm Supor® Acrodisc® 13, Gelman Sciences, Ann Arbor, Mich.). Eight different concentrations of radioactive labelled alpha-Gal trisaccharide-carbamate (9) (1 μg, 10 μg, 100 μg, 1 mg, 5 mg, 10 mg, 15 mg and 20 mg) and […] of regular “Glycom conjugate” (10 μg, 100 μg, 1 mg, 5 mg, 10 mg, 15 mg and 20 mg) were used. Twelve flasks (300 cm^2) (TPP, Trasadingen Switzerland) were prepared, each containing 10×10^6 B16.BL6 cells, for conjugation with the radioactive labelled trisaccharide probe, and 8 flasks (150 cm^2) (TPP, Trasadingen Switzerland) were prepared, each containing 5×10^6 B16.BL6 cells, for conjugation with the non-radioactive conjugate. The Glycom conjugate was added and the total volume was adjusted with HBSS containing D-glucose (without Mg^2+ and Ca^2+) so that each large flask (300 cm^2) contained a final volume of 20 mL and each medium flask (150 cm^2) contained a final volume of 10 mL. Cells were incubated with the “Glycom conjugate” for 1.5 hours at 37° C. After conjugation, the supernatant from each flask was transferred to separate 50 mL tubes (TPP, Trasadingen Switzerland). The cells were harvested with Cell Dissociation Solution (10 mL per large flask and 5 mL per medium flask) (Sigma-aldrich, Saint Louis, Mo.) and transferred to the 50 mL tubes containing the supernatant. The cells were centrifuged for 5 minutes at 300 G at 20° C. and resuspended in 5 mL of PBS (without Mg^2+ and Ca^2+). This was repeated 3 times before cell concentration and viability was determined by microscopic evaluation of trypan blue stained cell samples.
# Cells incubated with radioactive labelled trisaccharide probe were centrifuged for 5 minutes at 1000 G at 20° C. The supernatant was discharged and the remaining pellets were dried. Subsequently, the pellets were dissolved in 450 μl Mili-Q H2O and 1.5 mL of scintillation fluid was added. Standards for the scintillation were made by adding 500 pCi, 0.5 pCi and 0 pCi to the 3 samples of control cells. The samples were stored at room temperature for 3 days, before the cell suspensions were transferred to scintillation vials and counted.
# [3] = reaction 2, 200 mg conjugate, 10^6 cells, PBS, 3 h 25 min 37° C.
# [4] = reaction 3, 100 mg conjugate, measured 1 day after the conjugation procedure
# [5] = reaction 5, 20 mg conjugate, measured 1 day after the conjugation procedure
# [6] = reaction 7, 5 mg conjugate, measured 1 day after the conjugation procedure
# [7] = reaction 9, 1 mg conjugate, measured 1 day after the conjugation procedure
smiles,measurement,setting,value
"O=C1N[C@@H]2O[C@H](CO)[C@@H](O[C@@H]3O[C@H](CO)[C@H](O)[C@H](O[C@H]4O[C@H](CO)[C@H](O)[C@H](O)[C@H]4O)[C@H]3O)[C@H](O)[C@H]2O1 [Compound 9, alpha-Gal trisaccharide-carbamate]",Cell concentration,[1]; [3],3.50 × 10^6 cells/mL
same,Cell viability,[1]; [3],58.9%
same,Cell concentration,[1]; [4],3.08 × 10^6 cells/mL
same,Cell viability,[1]; [4],65.6%
same,Cell concentration,"[1]; reaction 4, 50 mg conjugate",3.16 × 10^6 cells/mL
same,Cell viability,"[1]; reaction 4, 50 mg conjugate",1.9%
same,Cell concentration,[1]; [5],1.90 × 10^6 cells/mL
same,Cell viability,[1]; [5],0.0%
same,Cell concentration,"[1]; reaction 6, 10 mg conjugate",2.26 × 10^6 cells/mL
same,Cell viability,"[1]; reaction 6, 10 mg conjugate",16.8%
same,Cell concentration,[1]; [6],2.02 × 10^6 cells/mL
same,Cell viability,[1]; [6],34.7%
same,Cell concentration,"[1]; reaction 8, 2 mg conjugate",2.22 × 10^6 cells/mL
same,Cell viability,"[1]; reaction 8, 2 mg conjugate",8.1%
same,Cell concentration,[1]; [7],2.12 × 10^6 cells/mL
same,Cell viability,[1]; [7],16.0%
O=[13C]1N[C@@H]2O[C@H](CO)[C@@H](O[C@@H]3O[C@H](CO)[C@H](O)[C@H](O[C@H]4O[C@H](CO)[C@H](O)[C@H](O)[C@H]4O)[C@H]3O)[C@H](O)[C@H]2O1 [radioactive labelled conjugate],Epitopes per cell,[2]; 1 μg conjugate added,1.0 × 10^6
same,Relation of scintillation counts to dose of conjugate,[2]; 1 μg-20 mg,positive correlation
same,Epitopes per cell,[2]; 10 μg conjugate added,0.6 × 10^6
same,Epitopes per cell,[2]; 100 μg conjugate added,6.8 × 10^6
same,Epitopes per cell,[2]; 1 mg conjugate added,33.9 × 10^6
same,Epitopes per cell,[2]; 5 mg conjugate added,175.3 × 10^6
same,Epitopes per cell,[2]; 15 mg conjugate added,501.2 × 10^6
same,Epitopes per cell,[2]; 20 mg conjugate added,515.2 × 10^6
